Source: US9890152B2 (Genentech, Inc., priority 2012, dated 2018)

Biological target: T1, EGFR del746-750 T790M (Homo sapiens, UniProt P00533, DEL746-750/T790M)
T1 construct: purchased Carna Biosciences 08-528
Assay: EGFR del746-750 T790M biochemical assay (Caliper mobility shift)
Conditions: 5 μM ATP, 30 min, room temperature; apparent Ki (Morrison) converted by Cheng-Prusoff, Km of ATP 2.1 μM; read-out: EGFR(T790M/d746-750) Ki

T1 sequence (P00533 with tags, fused parts or gaps DEL746-750/T790M limits assumed): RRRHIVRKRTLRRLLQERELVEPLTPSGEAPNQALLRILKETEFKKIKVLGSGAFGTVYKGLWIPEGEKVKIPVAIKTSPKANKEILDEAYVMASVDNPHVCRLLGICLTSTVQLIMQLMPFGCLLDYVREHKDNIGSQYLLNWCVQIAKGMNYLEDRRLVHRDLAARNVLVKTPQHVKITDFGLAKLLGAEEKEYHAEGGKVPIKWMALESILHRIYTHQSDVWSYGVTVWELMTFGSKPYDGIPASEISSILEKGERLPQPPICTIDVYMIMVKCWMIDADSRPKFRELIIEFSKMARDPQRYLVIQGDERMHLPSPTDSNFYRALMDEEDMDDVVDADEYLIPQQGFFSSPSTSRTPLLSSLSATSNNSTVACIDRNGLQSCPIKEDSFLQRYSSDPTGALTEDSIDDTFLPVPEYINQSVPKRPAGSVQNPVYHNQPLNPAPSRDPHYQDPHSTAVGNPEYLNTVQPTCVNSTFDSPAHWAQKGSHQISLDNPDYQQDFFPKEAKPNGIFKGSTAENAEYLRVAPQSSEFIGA

SMILES	Ki [nM]
CCC(C)n1cc(C(=O)NC2CCOCC2)c2cnc(Nc3ccnc(N4CCC(O)C(C)(C)C4)n3)cc21 (mixture of isomers) [Example 384, 1-(sec-butyl)-6-((2-(4-hydroxy-3,3-dimethylpiperidin-1-yl)pyrimidin-4-yl)amino)-N-(tetrahydro-2H-pyran-4-yl)-1H-pyrrolo[3,2-c]pyridine-3-carboxamide]	5.39
CCC(C)n1cc(C(=O)NC2CCN(C3COC3)CC2)c2cnc(Nc3ccnc(N4CC[C@H](O)[C@H](F)C4)n3)cc21 (mixture of isomers) [Example 389, 1-(sec-butyl)-6-((2-((3R,4S)-3-fluoro-4-hydroxypiperidin-1-yl)pyrimidin-4-yl)amino)-N-(1-(oxetan-3-yl)piperidin-4-yl)-1H-pyrrolo[3,2-c]pyridine-3-carboxamide]	4.03
CCC(C)n1cc(C(=O)N[C@H]2CCOC[C@H]2F)c2cnc(Nc3ccnc(N4CC[C@@H](O)[C@@H](F)C4)n3)cc21 (mixture of isomers) [Example 637, 1-(sec-butyl)-6-((2-((3S,4R)-3-fluoro-4-hydroxypiperidin-1-yl)pyrimidin-4-yl)amino)-N-((3SR, 4SR)-3-fluorotetrahydro-2H-pyran-4-yl)-1H-pyrrolo[3,2-c]pyridine-3-carboxamide]	4.01
CCC(C)n1cc(N2CCCC2=O)c2cnc(Nc3ccnc(N4CC[C@@H](O)[C@@H](F)C4)n3)cc21 (mixture of isomers) [Example 641, 1-(1-(sec-butyl)-6-((2-((3S,4R)-3-fluoro-4-hydroxypiperidin-1-yl)pyrimidin-4-yl)amino)-1H-pyrrolo[3,2-c]pyridin-3-yl)pyrrolidin-2-one]	4.02
COC1CCN(c2nccc(Nc3cc4c(cn3)nc([C@@H](C)O)n4[C@H](C)C(F)(F)F)n2)CC1F (mixture of isomers) [Example 297, (R)-1-[6-[2-(cis-3-Fluoro-4-methoxypiperidin-1-yl)pyrimidin-4-ylamino]-1-((R)-2,2,2-trifluoro-1-methylethyl)-1H-imidazo[4,5-c]pyridin-2-yl]ethanol]	40
CCC(C)n1cc(C(=O)NC2CCN(C3COC3)CC2)c2cnc(Nc3ccnc(-c4cnn(S(=O)(=O)C5CC5)c4)n3)cc21 (racemic) [Example 371, (±)-1-(sec-butyl)-6-((2-(1-(cyclopropylsulfonyl)-1H-pyrazol-4-yl)pyrimidin-4-yl)amino-N-(1-(oxetan-3-yl)piperidin-4-yl)-1H-pyrrolo[3,2-c]pyridine-3-carboxamide]	1.16
CC(C)n1cc(C(=O)N[C@@H]2CCN(C3COC3)C[C@@H]2F)c2cnc(Nc3ccnc(-c4cnn(S(=O)(=O)C5CC5)c4)n3)cc21 (racemic) [Example 372, (±)-6-((2-(1-(cyclopropylsulfonyl)-1H-pyrazol-4-yl)pyrimidin-4-yl)amino)-N-((cis)-3-fluoro-1-(oxetan-3-yl)piperidin-4-yl)-1-isopropyl-1H-pyrrolo[3,2-c]pyridine-3-carboxamide]	1.08
CC(C)n1cc(C(=O)NC2CCOCC2)c2cnc(Nc3ccnc(N4CCC(O)C(C)(C)C4)n3)cc21 (racemic) [Example 385, (±)-6-((2-(4-hydroxy-3,3-dimethylpiperidin-1-yl)pyrimidin-4-yl)amino)-l-isopropyl-N-(tetrahydro-2H-pyran-4-yl)-1H-pyrrolo[3,2-c] pyridine-3-carboxamide]	6.47
Cc1nc2cnc(Nc3ccnc(N4CCC(O)C(F)(F)C4)n3)cc2n1C(C)C (racemic) [Example 507, (±)-3,3-Difluoro-1-(4-((1-isopropyl-2-methyl-1H-imidazo[4,5-c]pyridin-6-yl)amino)pyrimidin-2-yl)piperidin-4-ol]	21.6
COC1CCN(c2nccc(Nc3cc4c(cn3)nc(C)n4C(C)C)n2)CC1(F)F (racemic) [Example 528, (±)-[2-(3,3-Difluoro-4-methoxypiperidin-1-yl)pyrimidin-4-yl](1-isopropyl-2-methyl-1H-imidazo[4,5-c]pyridin-6-yl)amine]	43.3
Cc1nc2cnc(Nc3ccnc(N4CC[C@@H](S(C)(=O)=O)[C@H](F)C4)n3)cc2n1C(C)C (racemic) [Example 616, [2-(±)-(trans-3-Fluoro-4-methanesulfonylpiperidin-1-yl)pyrimidin-4-yl]-(1-isopropyl-2-methyl-1H-imidazo[4,5-c]pyridin-6-yl)amine]	483

Other lines, results leading:

Ki [nM]	SMILES
42.8	Cc1nc2cnc(Nc3ccnc(N4CC[C@H](O)[C@H](F)C4)n3)cc2n1C(C)C (racemic) [Example 505, (±)-3-Fluoro-1-(4-((1-isopropyl-2-methyl-1H-imidazo [4,5-c]pyridin-6-yl)amino)pyrimidin-2-yl)piperidin-4-ol]
359	CO[C@@H]1CCN(c2nccc(Nc3cc4c(cn3)nc(C)n4C(C)C)n2)C[C@H]1O (racemic) [Example 508, (±)-1-(4-((1-Isopropyl-2-methyl-1H-imidazo[4,5-c]pyridin-6-yl)amino)pyrimidin-2-yl)-4-methoxypiperidin-3-ol]
348	CO[C@H]1CN(c2nccc(Nc3cc4c(cn3)nc(C)n4C(C)C)n2)CC[C@@H]1O (racemic) [Example 509, (±)-1-(4-((1-Isopropyl-2-methyl-1H-imidazo[4,5-c]pyridin-6-yl)amino)pyrimidin-2-yl)-3-methoxypiperidin-4-ol]
50.9	CO[C@H]1CCN(c2nccc(Nc3cc4c(cn3)nc(C)n4C(C)C)n2)C[C@H]1F (racemic) [Example 524, (±)-[2-((cis)-3-Fluoro-4-methoxypiperidin-1-yl)pyrimidin-4-yl]-(1-isopropyl-2-methyl-1H-imidazo[4,5-c]pyridin-6-yl)amine]
222	CO[C@H]1CCN(c2nccc(Nc3cc4c(cn3)nc(C)n4C(C)C)n2)C[C@@H]1F (racemic) [Example 525, (±)-[2-((trans)-3-Fluoro-4-methoxypiperidin-1-yl)pyrimidin-4-yl]-(1-isopropyl-2-methyl-1H-imidazo[4,5-c]pyridin-6-yl)amine]
50.5	CO[C@H]1CCN(c2nccc(Nc3cc4c(cn3)nc(CO)n4C(C)C)n2)C[C@H]1F (racemic) [Example 526, (±)-{6-[2-((cis)-3-Fluoro-4-methoxypiperidin-1-yl)pyrimidin-4-ylamino]-1-isopropyl-1H-imidazo[4,5-c]pyridin-2-yl}methanol]
239	CO[C@H]1CCN(c2nccc(Nc3cc4c(cn3)nc(CO)n4C(C)C)n2)C[C@@H]1F (racemic) [Example 527, (±)-{6-[2-((trans)-3-Fluoro-4-methoxypiperidin-1-yl)pyrimidin-4-ylamino]-1-isopropyl-1H-imidazo[4,5-c]pyridin-2-yl}methanol]
41.1	CO[C@H]1CCN(c2nccc(Nc3cc4c(cn3)nc(C)n4C(C)C)n2)C[C@H]1F (racemic) [Example 607, [2-((3RS,4SR)-3-Fluoro-4-methoxypiperidin-1-yl)pyrimidin-4-yl]-(1-isopropyl-2-methyl-1H-imidazo[4,5-c]pyridin-6-yl)amine]
48.3	CO[C@H]1CCN(c2nccc(Nc3cc4c(cn3)nc(C)n4C(C)C)n2)C[C@H]1F (racemic) [Example 608, [2-((3RS,4SR)-3-Fluoro-4-methoxypiperidin-1-yl)pyrimidin-4-yl]-(1-isopropyl-2-methyl-1H-imidazo[4,5-c]pyridin-6-yl)amine]
